Laboratory results as given in the supplement of paper PMC11061612.

How the values were obtained:
Test in all cases: combination Emax (second highest fraction inhibited in the dose matrix, 72 h); higher = more inhibition; extreme values may be limits of the assay
[1] = system: COR-L105 (Lung Adenocarcinoma)
Method in brief: (§1)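 Cell lines grown in DMEM/F12 or RPMI with 10% FBS were plated in 1536-well plates and held 24 hours at 37°C, 5% CO2 before 72 hours of exposure to two-drug dose matrices, with DMSO typically at 0.2%. CellTiter-Glo 2.0 luminescence gave viability, which was converted to inhibition. Vehicle wells were set to 0 and blank wells to 1. Combination Emax is the second-highest inhibition in the matrix, and Bliss excess is the observed combination effect minus the expected EA + EB − EA·EB, where EA and EB are the single-agent effects.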

[2] = system: MDA-MB-175-VII (Breast Carcinoma)
Method in brief: as §1

MG-63 (Osteosarcoma) = system: MG-63 (Osteosarcoma)
Method in brief: as §1

[3] = system: MRK-nu-1 (Breast Carcinoma)
Method in brief: as §1

[4] = system: NCI-H1648 (Lung Adenocarcinoma)
Method in brief: as §1

[5] = system: NCI-H2023 (Non-Small Cell Lung Carcinoma)
Method in brief: as §1

NCI-H2452 (Mesothelioma) = system: NCI-H2452 (Mesothelioma)
Method in brief: as §1

[6] = system: NTERA-2-cl-D1 (Other Solid Carcinomas)
Method in brief: as §1

[7] = system: OVKATE (Ovarian Carcinoma)
Method in brief: as §1

Row | SMILES | combination Emax [1] | combination Emax [2] | combination Emax (MG-63 (Osteosarcoma)) | combination Emax [3] | combination Emax [4] | combination Emax [5] | combination Emax (NCI-H2452 (Mesothelioma)) | combination Emax [6] | combination Emax [7]
1 | C=CCn1c(=O)c2cnc(Nc3ccc(N4CCN(C)CC4)cc3)nc2n1-c1cccc(C(C)(C)O)n1 [AZD1775] + CCc1c2c(nc3ccc(O)cc13)-c1cc3c(c(=O)n1C2)COC(=O)[C@]3(O)CC [SN-38] (first compound max 1 µM, partner max 0.3 µM) | 0.478 | 0.659 | 0.968 | 0.81 | 0.842 | 0.775 | 0.675 | 0.682 | 0.336
2 | C=CCn1c(=O)c2cnc(Nc3ccc(N4CCN(C)CC4)cc3)nc2n1-c1cccc(C(C)(C)O)n1 [AZD1775] + Nc1ccn([C@@H]2O[C@H](CO)[C@@H](O)C2(F)F)c(=O)n1 [Gemcitabine] (first compound max 1 µM, partner max 0.3 µM) | 0.428 | 0.456 | 0.955 | 0.688 | 0.643 | 0.656 | 0.693 | 0.614 | 0.261
3 | CN(CCO)CC[C@H](CSc1ccccc1)Nc1ccc(S(=O)(=O)NC(=O)c2ccc(N3CCC([C@@H](O)c4ccccc4-c4ccc(Cl)cc4)CC3)cc2)cc1S(=O)(=O)C(F)(F)F [AZD4320] + CS(=O)(=O)CCNCc1ccc(-c2ccc3ncnc(Nc4ccc(OCc5cccc(F)c5)c(Cl)c4)c3c2)o1 [Lapatinib] (first compound max 1 µM, 7x7, partner max 10 µM) | 0.917 | 1 | 0.596 | 0.387 | 0.952 | 0.301 | 0.581 | 0.965 | 0.677
4 | Cc1c2c(nn1C)CSCc1cc(n(C)n1)CSc1cc(c3ccccc3c1)OCCCc1c(C(=O)O)n(C)c3c-2c(Cl)ccc13 [AZD5991] + CS(=O)(=O)CCNCc1ccc(-c2ccc3ncnc(Nc4ccc(OCc5cccc(F)c5)c(Cl)c4)c3c2)o1 [Lapatinib] (first compound max 1 µM, 7x7, partner max 10 µM) | 0.688 | 0.973 | 0.157 | 1 | 0.895 | 0.284 | 0.414 | 0.487 | 0.307
5 | Cc1c2c(nn1C)CSCc1cc(n(C)n1)CSc1cc(c3ccccc3c1)OCCCc1c(C(=O)O)n(C)c3c-2c(Cl)ccc13 [AZD5991] + Nc1ccn([C@@H]2O[C@H](CO)[C@@H](O)C2(F)F)c(=O)n1 [Gemcitabine] (first compound max 1 µM, 7x7, partner max 0.3 µM) | 0.377 | 0.48 | 0.82 | 1 | 0.5 | 0.612 | 0.319 | 0.536 | 0.165
6 | C[C@@H]1COCCN1c1cc(C2([S@](C)(=N)=O)CC2)nc(-c2ccnc3[nH]ccc23)n1 [AZD6738] + C1CC(C1)(C(=O)[O-])C(=O)[O-].N.N.[Pt+2] [Carboplatin] (first compound max 10 µM, 7x7, partner max 10 µM) | 0.323 | 0.309 | 0.524 | 0.6 | 0.571 | 0.608 | 0.432 | 0.524 | 0.211
7 | C[C@@H](Nc1cc(F)cc(F)c1)c1cc(C(=O)N(C)C)cc2c(=O)cc(N3CCOCC3)oc12 [AZD8186] + C1CN(CCC1(C(=O)N[C@@H](CCO)C2=CC=C(C=C2)Cl)N)C3=NC=NC4=C3C=CN4 [AZD5363] (first compound max 10 µM, 7x7, partner max 10 µM) | 0.41 | 0.573 | 0.694 | 0.305 | 0.707 | 0.333 | 0.336 | 0.348 | 0.252
8 | C[C@@H](Nc1cc(F)cc(F)c1)c1cc(C(=O)N(C)C)cc2c(=O)cc(N3CCOCC3)oc12 [AZD8186] + CC(=O)c1c(C)c2cnc(Nc3ccc(N4CCNCC4)cn3)nc2n(C2CCCC2)c1=O [Palbociclib] (first compound max 10 µM, 7x7, partner max 10 µM) | 0.392 | 0.456 | 0.633 | 0.36 | 0.579 | 0.399 | 0.417 | 0.343 | 0.264
9 | C[C@@H](Oc1cc(-c2cnn(C3CCNCC3)c2)cnc1N)c1c(Cl)ccc(F)c1Cl [Crizotinib] + CC1=C(C(=CC=C1)Cl)NC(=O)C2=CN=C(S2)NC3=CC(=NC(=N3)C)N4CCN(CC4)CCO [Dasatinib] (first compound max 10 µM, 7x7, partner max 2 µM) | 0.481 | 0.0779 | 0.949 | 0.218 | 0.908 | 0.607 | 0.744 | 0.956 | 0.572
